Patent publication US20090074815A1, “Immunomodulator Compounds as Vaccine Enhancers” (SCICLONE PHARMACEUTICALS, INC., priority 2005, published 2009)
Read-outs that look alike come from different tables or passages of the source.

Key:
HBsAg = type: in vivo, human; settings: one month after immunization
[1] = tested on: IL-12R40 production by OvA-stimulated splenocytes; experiment: OvA-stimulated production of IL-12R40 by splenocytes of OvA-immunized mice; settings: for activity at 0.0001 mg/kg / activity at 0.001 mg/kg / activity at 0.01 mg/kg: Mus musculus, Splenocyte, po, read-out: Production of IL-12R40 by splenocytes, % (% of control), OvA/FA; for Production of IL-12R40 by splenocytes / Production of IL-12R40 by splenocytes, % (% of control): OvA/FA
Method: The OvA was administered subcutaneously to the crest in a volume of 200 μl. Mice were immunized on day 1 with OvA in complete Freund's adjuvant (CFA; Sigma) and on day 15 with the antigen in incomplete Freund's adjuvant (IFA; Sigma). The immune response was analyzed on day 29. Mice were also immunized with 10 μg/mouse of OvA using Alum as an adjuvant.
Thymuses and spleens from mice of each treatment group were pooled, and then minced with scissors. The minced tissues were suspended in sterile PBS to form cell suspensions, filtered through a double gauze layer and centrifuged. Cells were washed twice with PBS, re-suspended in RPMI-1640 (Sigma) with 2.0 mM of L-glutamine, 50 μM of mercaptoethanol, and 10 μg/ml of gentamycin (complete medium); and cell counts were made. (The splenocyte suspension was washed with a 0.86% solution of NH4Cl to pre-lyse erthrocytes.)
Assessment of Mitogen- and Antigen-Induced Production of Cytokines: Thymic cells (1×10^6/well) in complete medium with 2% FCS were stimulated with ConA (0, 1, and 2 μg/ml). Splenocytes (1×10^6/well) in complete medium with 5% FCS were stimulated with ConA (0, 1, and 5 μg/ml) and with OvA (0-100 μg/ml). […] Supernatants from OvA-stimulated cultures were collected after 72 hours. Supernatants from both cultures were frozen, and kept at 20° C. Concentrations of IL-2, IL-4, IL-10, IL-12R40 and IFNγ in the supernatants were determined by solid-phase EIA with EIA Expansion Kits, available from BD Biosciences (formerly Pharmingen), in accordance with the manufacturer's instructions.

[2] = 0.1 μg/kg per os, OvA 100 μg/ml
[3] = 1.0 μg/kg per os, OvA 100 μg/ml
[4] = 10.0 μg/kg per os, OvA 10 μg/ml
[5] = 10.0 μg/kg per os, OvA 25 μg/ml
[6] = 10.0 μg/kg per os, OvA 50 μg/ml
[7] = 10.0 μg/kg per os, OvA 100 μg/ml

Compound: N[C@H](CCC(=O)N[C@@H](Cc1c[nH]c2ccccc12)C(=O)O)C(=O)O [SCV-07, γ-D-glutamyl-L-tryptophan]
- concentration of antibodies to HBsAg in the blood (HBsAg; healthy subjects (Group III)): 253.6 MU/L
- concentration of antibodies to HBsAg in the blood (HBsAg; immunodeficient patients who received SCV-07 at the time of vaccination): 263.3 MU/L
- activity at 0.0001 mg/kg ([1]; 0.1 μg/kg per os, OvA 0 μg/ml): 100%
- activity at 0.0001 mg/kg ([1]; 0.1 μg/kg per os, OvA 10 μg/ml): 36.6%
- activity at 0.0001 mg/kg ([1]; 0.1 μg/kg per os, OvA 25 μg/ml): 24.3%
- activity at 0.0001 mg/kg ([1]; 0.1 μg/kg per os, OvA 50 μg/ml): 20.4%
- activity at 0.0001 mg/kg [1, 2]: 18.9%
- activity at 0.001 mg/kg ([1]; 1.0 μg/kg per os, OvA 0 μg/ml): 100%
- activity at 0.001 mg/kg ([1]; 1.0 μg/kg per os, OvA 10 μg/ml): 26.9%
- activity at 0.001 mg/kg ([1]; 1.0 μg/kg per os, OvA 25 μg/ml): 23.8%
- activity at 0.001 mg/kg ([1]; 1.0 μg/kg per os, OvA 50 μg/ml): 26.5%
- activity at 0.001 mg/kg [1, 3]: 25.1%
- activity at 0.01 mg/kg ([1]; 10.0 μg/kg per os, OvA 0 μg/ml): 100%
- activity at 0.01 mg/kg [1, 4]: 52.9%
- activity at 0.01 mg/kg [1, 5]: 40.7%
- activity at 0.01 mg/kg [1, 6]: 32.4%
- activity at 0.01 mg/kg [1, 7]: 31.9%
- OvA-induced production of IL-12r40 by splenocytes versus control ([1]; OvA/Alum, per os or i/p, data not shown): No significant differences
- Production of IL-12R40 by splenocytes ([1]; 0.1 μg/kg i/p, OvA 0 μg/ml): 1285.7 pg/mL
- Production of IL-12R40 by splenocytes ([1]; 0.1 μg/kg i/p, OvA 10 μg/ml): 492.4 pg/mL
- Production of IL-12R40 by splenocytes, % (% of control) ([1]; 0.1 μg/kg i/p, OvA 10 μg/ml): 38.3%
- Production of IL-12R40 by splenocytes ([1]; 0.1 μg/kg i/p, OvA 25 μg/ml): 499.6 pg/mL
- Production of IL-12R40 by splenocytes, % (% of control) ([1]; 0.1 μg/kg i/p, OvA 25 μg/ml): 38.9%
- Production of IL-12R40 by splenocytes ([1]; 0.1 μg/kg i/p, OvA 50 μg/ml): 420.8 pg/mL
- Production of IL-12R40 by splenocytes, % (% of control) ([1]; 0.1 μg/kg i/p, OvA 50 μg/ml): 32.7%
- Production of IL-12R40 by splenocytes ([1]; 0.1 μg/kg i/p, OvA 100 μg/ml): 522.8 pg/mL
- Production of IL-12R40 by splenocytes ([1]; 0.1 μg/kg per os, OvA 0 μg/ml): 1307.6 pg/mL
- Production of IL-12R40 by splenocytes ([1]; 0.1 μg/kg per os, OvA 10 μg/ml): 478.1 pg/mL
- Production of IL-12R40 by splenocytes ([1]; 0.1 μg/kg per os, OvA 25 μg/ml): 317.4 pg/mL
- Production of IL-12R40 by splenocytes ([1]; 0.1 μg/kg per os, OvA 50 μg/ml): 267.0 pg/mL
- Production of IL-12R40 by splenocytes [1, 2]: 246.5 pg/mL
- Production of IL-12R40 by splenocytes ([1]; 1.0 μg/kg i/p, OvA 0 μg/ml): 1524.0 pg/mL
- Production of IL-12R40 by splenocytes ([1]; 1.0 μg/kg i/p, OvA 10 μg/ml): 933.8 pg/mL
- Production of IL-12R40 by splenocytes, % (% of control) ([1]; 1.0 μg/kg i/p, OvA 10 μg/ml): 61.3%
- Production of IL-12R40 by splenocytes ([1]; 1.0 μg/kg i/p, OvA 25 μg/ml): 739.7 pg/mL
- Production of IL-12R40 by splenocytes, % (% of control) ([1]; 1.0 μg/kg i/p, OvA 25 μg/ml): 48.5%
- Production of IL-12R40 by splenocytes ([1]; 1.0 μg/kg i/p, OvA 50 μg/ml): 630.3 pg/mL
- Production of IL-12R40 by splenocytes, % (% of control) ([1]; 1.0 μg/kg i/p, OvA 50 μg/ml): 41.4%
- Production of IL-12R40 by splenocytes ([1]; 1.0 μg/kg i/p, OvA 100 μg/ml): 616.4 pg/mL
- Production of IL-12R40 by splenocytes, % (% of control) ([1]; 1.0 μg/kg i/p, OvA 100 μg/ml): 40.4%
- Production of IL-12R40 by splenocytes ([1]; 1.0 μg/kg per os, OvA 0 μg/ml): 1362.3 pg/mL
- Production of IL-12R40 by splenocytes ([1]; 1.0 μg/kg per os, OvA 10 μg/ml): 366.3 pg/mL
- Production of IL-12R40 by splenocytes ([1]; 1.0 μg/kg per os, OvA 25 μg/ml): 324.5 pg/mL
- Production of IL-12R40 by splenocytes ([1]; 1.0 μg/kg per os, OvA 50 μg/ml): 360.8 pg/mL
- Production of IL-12R40 by splenocytes [1, 3]: 342.4 pg/mL
- Production of IL-12R40 by splenocytes ([1]; 10.0 μg/kg per os, OvA 0 μg/ml): 1455.1 pg/mL
- Production of IL-12R40 by splenocytes [1, 4]: 769.3 pg/mL
- Production of IL-12R40 by splenocytes [1, 5]: 592 pg/mL
- Production of IL-12R40 by splenocytes [1, 6]: 471.9 pg/mL
- Production of IL-12R40 by splenocytes [1, 7]: 464.8 pg/mL
